# Values of other authors, collected in patent US20240207248A1, “METHODS, KITS AND COMPOSITIONS FOR REDUCING CHROMOSOMAL INSTABILITY IN CANCER CELLS” (BARUCH S. BLUMBERG INSTITUTE, priority 2021, published 2024).
# Tested on: aneuploid primary mouse embryonic fibroblasts carrying Robertsonian fusion chromosomes
# Conditions: energy and proteotoxic stress-inducing compounds
row,Structure (SMILES),selectivity against aneuploid primary mouse embryonic fibroblasts
1,C=CCNC1=C2C[C@@H](C)C[C@H](OC)[C@H](O)[C@@H](C)/C=C(\C)[C@H](OC(N)=O)[C@@H](OC)/C=C\C=C(/C)C(=O)NC(=CC1=O)C2=O [17-AAG],showed selectivity
2,NC(=O)c1ncn([C@@H]2O[C@H](CO)[C@@H](O)[C@H]2O)c1N [AICAR],showed selectivity
